Data on seven molecules can be found in patent publication US20060046278A1, “Methods and kits for determining metabolic stability of compounds” (Qualyst, Inc., priority 2004, published 2006).

In series [1] the target is T1, CYP2D6 (Homo sapiens, UniProt P10635). The following applies: degree of metabolism by parent compound remaining after 10 min; 5 μM substrate, recombinant CYP2D6 microsomes, 1 mM NADPH, 37° C.
Procedure: Test compounds were prepared as 20 mM stock solutions in DMSO and diluted to 2 mM in acetonitrile. […] Unless otherwise specified, reaction mixtures consisted of 5 μM substrate, 30 pmol/mL recombinant CYP2D6 microsomes (GenTest™) and 1 mM NADPH prepared in buffer to a final volume of 750 μl. Reactions were performed at 37° C. in 1.2 mL marsh tubes. Reactions were incubated for 3 min prior to adding NADPH. Aliquots of the reaction mixture (100 μL) were removed at 0 (immediately after the addition of NADPH), 5, 10, 20 and 30 min and quenched with 200 μL of acetonitrile (containing 2.5 μM terfenadine). Samples were placed at −20° C. for 1 hr and centrifuged using a Thermo IEC Centra GP8R table top centrifuge (3,000 rpm for 10 min). The supernatant fraction was transferred to 500 μL 96-well blocks for LC-MS analysis.
LC-MS analysis was performed using a HPLC system consisting of a Shimadzu LC-10AD pump and Perkin Elmer Series 200 Autosampler coupled to an Applied Biosystems Sciex API 3000 triple-quadrapole mass spectrometer. Test compounds were separated on an Agilent ZORBAX® Bonus-RP column (30×2.1 mm, 3.5 μm particle size) maintained at 30° C. […] The column was equilibrated with 100% buffer A for 2 min between each run. The HPLC eluant was directly introduced into the mass spectrometer equipped with a Turbo Ionspray interface operated at 4500 V in the positive mode. […] Compounds were detected by single ion monitoring using the following parameters: declustering potential, 35 V; focusing potential, 200 V; exit potential, 10 V.
The target of series [2] is T1, CYP2D6. Conditions: 20 μM substrate; for CL rank order: degree of metabolism by rate of ROS-dependent CL production, reconstituted recombinant CYP2D6, 1 mM NADPH, 37° C.
Procedure: Stock solutions of NADPH were freshly prepared before each experiment in buffer. Test compounds were prepared as 20 mM stock solutions in DMSO and diluted to 2 mM in acetonitrile. […] Reactions were performed at 37° C. in 500 μL deep 96-well blocks. Reactions were incubated for 3 min prior to adding NADPH. Aliquots of the reaction mixture (10 μL) were removed at 0 (immediately after the addition of NADPH), 5,10, 20 and 30 min and quenched with 20 μL of acetonitrile and placed in 96-well polypropylene plates. ROS formation was quantified using a chemiluminescence reaction as described below.

T1 sequence (P10635 whole entry): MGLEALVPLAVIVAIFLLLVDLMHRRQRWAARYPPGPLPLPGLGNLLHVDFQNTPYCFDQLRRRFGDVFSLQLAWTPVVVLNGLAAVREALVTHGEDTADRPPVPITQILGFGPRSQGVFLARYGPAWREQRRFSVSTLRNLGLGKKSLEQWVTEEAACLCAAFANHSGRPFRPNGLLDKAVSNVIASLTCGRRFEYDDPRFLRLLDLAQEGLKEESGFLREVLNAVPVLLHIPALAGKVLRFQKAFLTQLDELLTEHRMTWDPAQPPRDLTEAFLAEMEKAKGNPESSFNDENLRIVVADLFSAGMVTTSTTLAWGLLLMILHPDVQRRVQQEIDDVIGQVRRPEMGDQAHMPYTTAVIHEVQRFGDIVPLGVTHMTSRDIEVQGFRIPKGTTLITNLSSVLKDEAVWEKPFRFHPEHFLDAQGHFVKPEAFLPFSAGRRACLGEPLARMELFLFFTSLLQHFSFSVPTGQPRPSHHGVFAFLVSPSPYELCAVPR

Consider `O=C(CCCN1CCC(O)(c2cccc(C(F)(F)F)c2)CC1)c1ccc(F)cc1` [trifluperidol], for which, at CYP2D6 [1], the LC-MS rank order was 1 (low (more than 75% of parent compound remaining after 10 min)). Also, the CL rank order at CYP2D6 [2] was 2 (moderate (a rate of CL production between 400 (background) and 800 CL Units/min)).
As for `COc1ccc([C@@H]2Sc3ccccc3N(CCN(C)C)C(=O)[C@@H]2OC(C)=O)cc1` [diltiazem], on CYP2D6 [1], the LC-MS rank order is 1 (low (more than 75% of parent compound remaining after 10 min)). For the same molecule, the CL rank order on CYP2D6 [2] is recorded as 1 (low (a rate of CL production equal to or below that observed in the absence of substrate (400 Units/min))).
Take `C=CCc1ccccc1OCC(O)CNC(C)C` (stereo not drawn) [alprenolol]: the LC-MS rank order on CYP2D6 [1] was 3 (high (less than 20% of parent compound remaining after 10 min)). Moreover, on CYP2D6 [2], the CL rank order is 3 (high (a rate of CL production above 800 Units/min)).
On the same counts, the results for `NC(=O)N1c2ccccc2C=Cc2ccccc21` [carbamazepine] are 1 (low (more than 75% of parent compound remaining after 10 min)) and 1 (low (a rate of CL production equal to or below that observed in the absence of substrate (400 Units/min))).
As to `COc1ccc(CCN2CCC(Nc3nc4ccccc4n3Cc3ccc(F)cc3)CC2)cc1` [astemizole], on CYP2D6 [1], the LC-MS rank order was 2 (moderate (between 20 and 75% of parent compound remaining after 10 min)). Besides, the CL rank order at CYP2D6 [2] is 2 (moderate (a rate of CL production between 400 (background) and 800 CL Units/min)).
As for `COc1ccc2c(c1)[C@]13CCCC[C@@H]1[C@H](C2)N(C)CC3` [dextromethorphan], the LC-MS rank order on CYP2D6 [1] is 2 (moderate (between 20 and 75% of parent compound remaining after 10 min)). Besides, on CYP2D6 [2] (CYP2D6 reaction, 30 min time course), the “increase in the rate of CL production over background (no substrate)” value is “approximately two-fold”. Besides, at CYP2D6 [2], the CL rank order was 2 (moderate (a rate of CL production between 400 (background) and 800 CL Units/min)).
Turning to `CCC(C)n1ncn(-c2ccc(N3CCN(c4ccc(OCC5COC(Cn6cncn6)(c6ccc(Cl)cc6Cl)O5)cc4)CC3)cc2)c1=O` (stereo not drawn) [itraconazole], the LC-MS rank order on CYP2D6 [1] is listed as 1 (low (more than 75% of parent compound remaining after 10 min)). The CL rank order at CYP2D6 [2] is on record as 1 (low (a rate of CL production equal to or below that observed in the absence of substrate (400 Units/min))).
